{"source": "patent US8404677B2", "about": "“Kinase inhibitors” (Genosco, priority 2009, dated 2013)", "key": {"[1]": {"system": "UACC-257", "assay": "cells", "assay_type": "cell-based", "details": "UACC-257 (Melanoma)"}, "[2]": {"system": "UACC-62", "assay": "cells", "assay_type": "cell-based", "details": "UACC-62 (Melanoma)"}, "[3]": {"system": "SW-620", "assay": "cells", "assay_type": "cell-based", "details": "SW-620 (Colon Cancer)"}, "[4]": {"system": "CAKI-1", "assay": "cells", "assay_type": "cell-based", "details": "CAKI-1 (Renal Cancer)"}, "[5]": {"target": "T1, truncated human RET (Homo sapiens, UniProt P07949)", "T1 construct": "truncated human FAK, RET, FLT3, JAK2, and LRRK2 (CARNA BIOSCIENCES™); purchased Carna Biosciences", "T1 sequence (P07949 658-1114 limits assumed)": "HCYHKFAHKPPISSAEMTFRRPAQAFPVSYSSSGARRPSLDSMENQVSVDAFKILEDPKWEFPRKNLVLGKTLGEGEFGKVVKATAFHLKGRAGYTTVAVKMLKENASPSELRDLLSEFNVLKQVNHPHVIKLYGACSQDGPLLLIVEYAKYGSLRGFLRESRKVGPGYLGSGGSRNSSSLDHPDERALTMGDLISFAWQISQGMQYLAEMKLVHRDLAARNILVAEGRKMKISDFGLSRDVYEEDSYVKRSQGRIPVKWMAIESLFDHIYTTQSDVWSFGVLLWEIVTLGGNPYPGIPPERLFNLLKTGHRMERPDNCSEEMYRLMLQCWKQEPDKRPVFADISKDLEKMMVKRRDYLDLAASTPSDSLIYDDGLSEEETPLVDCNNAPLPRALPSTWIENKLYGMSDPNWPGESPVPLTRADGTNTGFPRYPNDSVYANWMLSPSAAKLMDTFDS", "assay": "Inhibition of enzymatic kinase activity (LANCE Ulight)", "assay_type": "biochemical"}, "[6]": {"target": "T2, human ZAP70 (Homo sapiens, UniProt P43403)", "T2 construct": "Purified full-length human SYK, ZAP70, PIM1, PYK2; purchased Carna Biosciences", "T2 sequence (P43403 1-619)": "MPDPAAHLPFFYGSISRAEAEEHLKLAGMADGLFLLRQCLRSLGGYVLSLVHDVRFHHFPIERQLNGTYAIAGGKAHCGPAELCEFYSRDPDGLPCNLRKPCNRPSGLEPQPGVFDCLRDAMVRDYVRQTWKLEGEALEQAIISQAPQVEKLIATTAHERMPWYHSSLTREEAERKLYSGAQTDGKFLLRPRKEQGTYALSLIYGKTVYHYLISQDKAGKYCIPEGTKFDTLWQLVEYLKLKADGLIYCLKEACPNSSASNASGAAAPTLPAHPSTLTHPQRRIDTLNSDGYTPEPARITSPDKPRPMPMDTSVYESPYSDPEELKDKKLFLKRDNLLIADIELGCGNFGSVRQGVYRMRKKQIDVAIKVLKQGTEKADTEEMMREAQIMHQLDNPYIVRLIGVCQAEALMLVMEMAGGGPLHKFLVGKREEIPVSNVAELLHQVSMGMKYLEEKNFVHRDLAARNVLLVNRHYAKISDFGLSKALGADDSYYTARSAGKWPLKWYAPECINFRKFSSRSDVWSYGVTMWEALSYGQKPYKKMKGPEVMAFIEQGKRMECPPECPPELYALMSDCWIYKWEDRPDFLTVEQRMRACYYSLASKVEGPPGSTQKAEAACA", "assay": "Inhibition of enzymatic kinase activity (LANCE Ulight)", "assay_type": "biochemical", "details": "at 1 μM concentration; read-out: ZAP70 percentage inhibition"}, "[7]": {"details": "Homo sapiens, read-out: LC50 (the source's name)"}}, "data": [{"smiles": "O=c1[nH]ccc2nc(N3CCC(O)CC3)nc(Nc3cccc(C(F)(F)F)c3)c12", "note": "[Compound 6, 2-(4-hydroxypiperidin-1-yl)-4-(3-(trifluoromethyl)phenylamino)pyrido[4,3-d]pyrimidine-5(6H)-one]", "values": [{"measurement": "GI50", "setting": "[1]; Homo sapiens", "result": 4.27, "unit": "µM"}, {"measurement": "IC50", "setting": "[1]; Homo sapiens", "result": 8.71, "unit": "µM"}, {"measurement": "CC50", "setting": "[1]; [7]", "result": 45.7, "unit": "µM"}, {"measurement": "TGI", "setting": "[1]", "result": 12.9, "unit": "µM"}, {"measurement": "GI50", "setting": "[2]; Homo sapiens", "result": 1.82, "unit": "µM"}, {"measurement": "IC50", "setting": "[2]; Homo sapiens", "result": 3.98, "unit": "µM"}, {"measurement": "CC50", "setting": "[2]; [7]", "result": 27.5, "unit": "µM"}, {"measurement": "TGI", "setting": "[2]", "result": 6.92, "unit": "µM"}, {"measurement": "GI50", "setting": "[3]; Homo sapiens", "result": 1.91, "unit": "µM"}, {"measurement": "IC50", "setting": "[3]; Homo sapiens", "result": 2.82, "unit": "µM"}, {"measurement": "CC50", "setting": "[3]; [7]", "result": 74.1, "unit": "µM"}, {"measurement": "TGI", "setting": "[3]", "result": 12.9, "unit": "µM"}, {"measurement": "TGI", "setting": "[4]", "result": 6.31, "unit": "µM"}, {"measurement": "GI50", "setting": "[4]; Homo sapiens", "result": 0.282, "unit": "µM"}, {"measurement": "IC50", "setting": "[4]; Homo sapiens", "result": 1.29, "unit": "µM"}, {"measurement": "CC50", "setting": "[4]; [7]", "result": 100, "unit": "µM"}, {"measurement": "IC50", "setting": "[5]", "result": 0.0942, "unit": "µM"}, {"measurement": "inhibition at 1 µM", "setting": "[6]", "result": 49, "unit": "%"}]}]}
